# Tests used:
# [1] = target: 5-hydroxytryptamine receptor 5A (Homo sapiens) (UniProt P47898); assay: Inhibition of 5HT5A receptor at 10 uM
# [2] = target: Muscarinic acetylcholine receptor M3 (Homo sapiens, UniProt P20309); assay: Inhibition of muscarinic M3 receptor at 10 uM
# [3] = target: Beta-3 adrenergic receptor (Homo sapiens) (UniProt P13945); assay: Inhibition of beta3 adrenergic receptor at 10 uM
# [4] = target: Histamine H3 receptor (Homo sapiens) (UniProt Q9Y5N1); assay: Inhibition of H3 receptor at 10 uM
# Sequence of Histamine H3 receptor (Homo sapiens) (Q9Y5N1 whole entry): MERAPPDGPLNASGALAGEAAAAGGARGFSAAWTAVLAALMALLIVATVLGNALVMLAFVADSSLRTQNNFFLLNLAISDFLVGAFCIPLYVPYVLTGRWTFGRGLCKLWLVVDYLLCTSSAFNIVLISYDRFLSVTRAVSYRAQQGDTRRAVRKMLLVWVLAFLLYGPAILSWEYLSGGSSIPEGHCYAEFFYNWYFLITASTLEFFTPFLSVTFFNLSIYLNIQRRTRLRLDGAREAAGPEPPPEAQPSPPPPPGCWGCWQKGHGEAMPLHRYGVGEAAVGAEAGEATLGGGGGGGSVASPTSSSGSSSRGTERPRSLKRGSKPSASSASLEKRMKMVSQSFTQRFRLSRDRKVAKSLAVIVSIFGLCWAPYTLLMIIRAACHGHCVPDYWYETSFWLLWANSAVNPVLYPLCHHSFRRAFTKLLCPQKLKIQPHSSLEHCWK
# [5] = target: T1, D(4) dopamine receptor (Homo sapiens) (UniProt P21917); assay: Inhibition of dopamine D4 receptor at 10 uM
# T1 sequence (whole entry): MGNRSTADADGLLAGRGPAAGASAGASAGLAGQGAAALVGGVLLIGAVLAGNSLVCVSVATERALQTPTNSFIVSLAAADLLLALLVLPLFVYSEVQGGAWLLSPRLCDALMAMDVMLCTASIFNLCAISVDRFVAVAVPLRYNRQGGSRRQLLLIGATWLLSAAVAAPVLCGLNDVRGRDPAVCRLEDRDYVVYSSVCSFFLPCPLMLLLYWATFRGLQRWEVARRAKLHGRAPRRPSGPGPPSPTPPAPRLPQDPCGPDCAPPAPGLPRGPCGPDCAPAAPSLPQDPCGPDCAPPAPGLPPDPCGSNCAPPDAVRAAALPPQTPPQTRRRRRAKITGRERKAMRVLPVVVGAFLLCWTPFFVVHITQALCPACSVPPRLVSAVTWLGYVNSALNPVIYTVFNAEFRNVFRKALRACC
# [6] = Displacement of [3H]-ditolyl guanidine from sigma 2 receptor in rat PC12 cells; type: cell-based; conditions: pc-12
# [7] = target: 5-hydroxytryptamine receptor 1B (Homo sapiens) (UniProt P28222); assay: Inhibition of 5HT1B receptor at 10 uM
# Sequence of 5-hydroxytryptamine receptor 1B (Homo sapiens) (P28222 whole entry): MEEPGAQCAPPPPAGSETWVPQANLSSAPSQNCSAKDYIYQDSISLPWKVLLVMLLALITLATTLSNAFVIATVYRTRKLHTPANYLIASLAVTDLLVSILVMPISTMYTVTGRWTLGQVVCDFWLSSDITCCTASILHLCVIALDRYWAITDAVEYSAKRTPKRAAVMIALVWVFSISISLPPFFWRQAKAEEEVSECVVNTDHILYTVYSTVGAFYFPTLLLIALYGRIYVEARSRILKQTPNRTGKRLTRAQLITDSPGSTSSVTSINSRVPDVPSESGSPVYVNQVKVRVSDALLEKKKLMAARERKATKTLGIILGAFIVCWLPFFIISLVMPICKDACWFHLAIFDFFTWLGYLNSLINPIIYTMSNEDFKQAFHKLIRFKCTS
# [8] = target: 5-hydroxytryptamine receptor 7 (Homo sapiens) (UniProt P34969); assay: Inhibition of 5HT7 receptor at 10 uM
# Sequence of 5-hydroxytryptamine receptor 7 (Homo sapiens) (P34969 whole entry): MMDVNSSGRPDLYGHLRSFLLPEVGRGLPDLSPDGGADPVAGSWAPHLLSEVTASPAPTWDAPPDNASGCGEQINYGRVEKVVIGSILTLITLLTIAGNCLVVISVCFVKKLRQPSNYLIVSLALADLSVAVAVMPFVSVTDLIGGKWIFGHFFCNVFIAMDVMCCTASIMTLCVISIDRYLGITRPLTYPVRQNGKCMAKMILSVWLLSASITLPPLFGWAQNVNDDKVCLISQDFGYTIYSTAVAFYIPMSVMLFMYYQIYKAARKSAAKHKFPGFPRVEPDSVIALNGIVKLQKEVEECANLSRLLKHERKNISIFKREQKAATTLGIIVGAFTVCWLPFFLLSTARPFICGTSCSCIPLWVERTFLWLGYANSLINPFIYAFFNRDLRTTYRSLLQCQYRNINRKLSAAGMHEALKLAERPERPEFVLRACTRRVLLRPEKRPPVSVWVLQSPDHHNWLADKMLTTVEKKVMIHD
# [9] = target: D(1A) dopamine receptor (Homo sapiens) (UniProt P21728); assay: Inhibition of dopamine D1 receptor at 10 uM
# Sequence of D(1A) dopamine receptor (Homo sapiens) (P21728 whole entry): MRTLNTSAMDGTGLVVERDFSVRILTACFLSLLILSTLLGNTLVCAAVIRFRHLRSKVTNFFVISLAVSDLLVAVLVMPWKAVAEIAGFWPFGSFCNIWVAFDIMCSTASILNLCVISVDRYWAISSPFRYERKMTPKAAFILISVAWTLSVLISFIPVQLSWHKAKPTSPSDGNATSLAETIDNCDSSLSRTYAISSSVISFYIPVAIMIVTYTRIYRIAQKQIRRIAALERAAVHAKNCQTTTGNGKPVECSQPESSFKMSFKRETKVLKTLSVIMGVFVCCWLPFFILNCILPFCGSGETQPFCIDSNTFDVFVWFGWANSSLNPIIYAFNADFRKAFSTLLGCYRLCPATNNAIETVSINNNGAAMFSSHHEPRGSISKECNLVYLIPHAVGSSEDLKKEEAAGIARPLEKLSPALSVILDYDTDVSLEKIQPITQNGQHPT
# [10] = target: T2, Muscarinic acetylcholine receptor M4 (Homo sapiens) (UniProt P08173); assay: Inhibition of muscarinic M4 receptor at 10 uM
# T2 sequence (whole entry): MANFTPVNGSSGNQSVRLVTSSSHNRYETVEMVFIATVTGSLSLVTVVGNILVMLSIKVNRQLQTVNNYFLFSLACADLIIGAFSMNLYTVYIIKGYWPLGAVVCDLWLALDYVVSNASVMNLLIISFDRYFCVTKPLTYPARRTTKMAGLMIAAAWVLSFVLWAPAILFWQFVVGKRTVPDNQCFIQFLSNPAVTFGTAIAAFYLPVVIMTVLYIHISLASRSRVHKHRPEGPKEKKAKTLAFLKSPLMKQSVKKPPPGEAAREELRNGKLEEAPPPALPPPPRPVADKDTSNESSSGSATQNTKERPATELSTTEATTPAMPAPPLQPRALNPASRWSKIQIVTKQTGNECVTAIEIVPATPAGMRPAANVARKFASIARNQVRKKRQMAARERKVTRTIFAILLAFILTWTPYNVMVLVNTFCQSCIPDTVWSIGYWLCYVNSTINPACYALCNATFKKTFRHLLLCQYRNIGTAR
# [11] = target: Sodium-dependent serotonin transporter (Homo sapiens, UniProt P31645); assay: Displacement of [3H]citalopram from human SERT expressed in HEK cells; type: cell-based, HEK293; conditions: for inhibition: HEK293, concentration not given here
# [12] = target: T3, Alpha-1A adrenergic receptor (Homo sapiens) (UniProt P35348); assay: Inhibition of alpha1A adrenergic receptor at 10 uM
# T3 sequence (whole entry): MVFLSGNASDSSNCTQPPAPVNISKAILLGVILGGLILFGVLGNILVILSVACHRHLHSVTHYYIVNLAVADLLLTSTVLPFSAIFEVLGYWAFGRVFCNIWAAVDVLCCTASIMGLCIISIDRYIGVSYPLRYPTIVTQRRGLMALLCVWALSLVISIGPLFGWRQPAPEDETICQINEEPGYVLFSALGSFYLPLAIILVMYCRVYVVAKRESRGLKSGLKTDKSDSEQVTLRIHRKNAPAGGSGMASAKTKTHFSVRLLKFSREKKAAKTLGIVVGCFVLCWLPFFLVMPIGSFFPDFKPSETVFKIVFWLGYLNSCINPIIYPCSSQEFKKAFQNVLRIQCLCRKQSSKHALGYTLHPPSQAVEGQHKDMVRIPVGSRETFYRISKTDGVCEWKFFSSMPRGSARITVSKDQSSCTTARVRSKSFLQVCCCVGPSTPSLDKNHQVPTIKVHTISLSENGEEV
# [13] = target: T4, Muscarinic acetylcholine receptor M2 (Homo sapiens) (UniProt P08172); assay: Inhibition of muscarinic M2 receptor at 10 uM
# T4 sequence (whole entry): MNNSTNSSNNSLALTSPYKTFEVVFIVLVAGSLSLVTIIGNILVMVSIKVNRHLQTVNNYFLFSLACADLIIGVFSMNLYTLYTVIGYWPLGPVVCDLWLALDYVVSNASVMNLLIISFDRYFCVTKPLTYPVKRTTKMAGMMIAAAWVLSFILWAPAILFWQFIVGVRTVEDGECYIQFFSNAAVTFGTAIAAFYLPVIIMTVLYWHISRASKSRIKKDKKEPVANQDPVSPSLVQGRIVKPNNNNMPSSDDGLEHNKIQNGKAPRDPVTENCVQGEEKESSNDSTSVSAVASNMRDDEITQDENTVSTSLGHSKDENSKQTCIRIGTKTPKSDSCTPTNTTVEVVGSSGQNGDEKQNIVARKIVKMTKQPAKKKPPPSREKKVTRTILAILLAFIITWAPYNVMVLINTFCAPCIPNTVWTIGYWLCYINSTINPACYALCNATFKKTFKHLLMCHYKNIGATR
# [14] = target: T5, 5-hydroxytryptamine receptor 2C (Homo sapiens) (UniProt P28335); assay: Inhibition of 5HT2C receptor at 10 uM
# T5 sequence (whole entry): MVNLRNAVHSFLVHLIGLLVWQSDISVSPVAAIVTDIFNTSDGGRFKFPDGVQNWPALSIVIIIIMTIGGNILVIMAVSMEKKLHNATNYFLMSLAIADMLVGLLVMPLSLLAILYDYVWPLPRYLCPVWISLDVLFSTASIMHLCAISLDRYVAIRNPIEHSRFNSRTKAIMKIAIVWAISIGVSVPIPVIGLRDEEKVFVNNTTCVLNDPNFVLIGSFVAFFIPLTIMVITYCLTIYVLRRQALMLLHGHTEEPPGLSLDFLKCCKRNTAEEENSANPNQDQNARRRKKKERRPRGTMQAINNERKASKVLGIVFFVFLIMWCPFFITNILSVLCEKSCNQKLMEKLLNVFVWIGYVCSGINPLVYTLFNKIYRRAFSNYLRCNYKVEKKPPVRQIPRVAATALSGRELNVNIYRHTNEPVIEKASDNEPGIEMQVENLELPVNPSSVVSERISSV
# [15] = target: Sodium-dependent dopamine transporter (Homo sapiens, UniProt Q01959); assay: Displacement of [3H]WIN-35428 form human DAT expressed in HEK cell membranes; design: species or system HEK293
# Sequence of Sodium-dependent dopamine transporter (Q01959 whole entry): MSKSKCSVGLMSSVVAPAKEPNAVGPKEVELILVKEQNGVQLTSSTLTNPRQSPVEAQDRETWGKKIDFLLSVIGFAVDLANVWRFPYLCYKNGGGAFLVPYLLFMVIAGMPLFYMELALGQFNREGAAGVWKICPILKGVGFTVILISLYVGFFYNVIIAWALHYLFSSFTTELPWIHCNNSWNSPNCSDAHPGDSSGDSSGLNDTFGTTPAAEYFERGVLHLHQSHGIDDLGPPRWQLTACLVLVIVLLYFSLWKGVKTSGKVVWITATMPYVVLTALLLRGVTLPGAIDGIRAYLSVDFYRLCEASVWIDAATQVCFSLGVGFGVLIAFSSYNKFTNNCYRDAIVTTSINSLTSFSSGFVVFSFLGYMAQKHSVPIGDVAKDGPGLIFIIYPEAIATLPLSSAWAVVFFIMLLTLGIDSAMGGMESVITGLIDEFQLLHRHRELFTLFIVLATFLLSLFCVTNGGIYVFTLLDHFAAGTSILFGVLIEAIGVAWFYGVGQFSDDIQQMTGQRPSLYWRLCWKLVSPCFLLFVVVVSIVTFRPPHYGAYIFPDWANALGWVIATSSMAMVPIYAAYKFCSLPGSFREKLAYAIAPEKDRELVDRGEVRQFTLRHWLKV
# Sequence of 5-hydroxytryptamine receptor 5A (Homo sapiens) (P47898 whole entry): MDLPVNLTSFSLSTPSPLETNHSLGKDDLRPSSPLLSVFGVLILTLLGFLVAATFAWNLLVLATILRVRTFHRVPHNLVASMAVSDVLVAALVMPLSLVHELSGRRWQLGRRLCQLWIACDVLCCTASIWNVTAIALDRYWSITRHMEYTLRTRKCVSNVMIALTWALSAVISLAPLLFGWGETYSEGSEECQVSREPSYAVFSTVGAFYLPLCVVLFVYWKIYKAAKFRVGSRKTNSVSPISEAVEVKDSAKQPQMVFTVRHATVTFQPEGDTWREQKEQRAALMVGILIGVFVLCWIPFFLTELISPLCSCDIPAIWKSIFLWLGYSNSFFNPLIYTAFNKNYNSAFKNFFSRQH
# Sequence of Muscarinic acetylcholine receptor M3 (P20309 whole entry, looked up): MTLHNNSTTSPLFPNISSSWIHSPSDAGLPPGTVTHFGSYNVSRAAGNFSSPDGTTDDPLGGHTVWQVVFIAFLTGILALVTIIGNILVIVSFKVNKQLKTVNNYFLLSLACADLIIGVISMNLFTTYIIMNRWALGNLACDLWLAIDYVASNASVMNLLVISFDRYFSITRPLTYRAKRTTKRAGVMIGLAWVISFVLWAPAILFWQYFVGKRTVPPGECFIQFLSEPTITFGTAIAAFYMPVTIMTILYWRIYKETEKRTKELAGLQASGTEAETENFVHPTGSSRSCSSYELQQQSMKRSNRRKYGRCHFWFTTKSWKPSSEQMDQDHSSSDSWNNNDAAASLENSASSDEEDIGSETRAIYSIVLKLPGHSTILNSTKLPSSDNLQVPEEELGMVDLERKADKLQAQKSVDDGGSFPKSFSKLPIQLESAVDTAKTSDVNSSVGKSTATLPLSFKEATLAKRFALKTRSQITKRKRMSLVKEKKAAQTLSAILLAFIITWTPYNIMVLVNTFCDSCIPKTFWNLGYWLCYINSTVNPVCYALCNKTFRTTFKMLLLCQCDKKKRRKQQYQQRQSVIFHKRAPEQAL
# Sequence of Beta-3 adrenergic receptor (Homo sapiens) (P13945 whole entry, looked up): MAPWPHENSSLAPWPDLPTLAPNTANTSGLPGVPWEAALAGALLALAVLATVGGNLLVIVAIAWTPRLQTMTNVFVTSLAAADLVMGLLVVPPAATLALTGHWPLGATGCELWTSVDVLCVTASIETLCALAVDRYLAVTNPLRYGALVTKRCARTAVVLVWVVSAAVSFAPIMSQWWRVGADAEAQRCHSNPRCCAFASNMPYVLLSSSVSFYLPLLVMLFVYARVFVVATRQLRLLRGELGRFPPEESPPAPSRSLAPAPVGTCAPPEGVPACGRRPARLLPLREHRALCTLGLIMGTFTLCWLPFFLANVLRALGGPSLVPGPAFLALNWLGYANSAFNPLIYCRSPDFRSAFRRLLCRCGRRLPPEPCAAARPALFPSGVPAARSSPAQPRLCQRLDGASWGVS
SMILES,inhibition [1] [%],inhibition [2] [%],inhibition [3] [%],inhibition [4] [%],inhibition [5] [%],Ki [6] [nM],inhibition [7] [%],inhibition [8] [%],inhibition [9] [%],inhibition [10] [%],Ki [11] [nM],inhibition [12] [%],inhibition [13] [%],inhibition [14] [%],Ki [15] [nM],inhibition [11] [%]
Fc1cccc(CN[C@H]2C3C4CC5C6C4CC3C6C52)c1 (some centres not stated),< 50,< 50,< 50,< 50,< 50,19,< 50,< 50,< 50,< 50,> 10000,< 50,< 50,< 50,3440,–
CN(Cc1cccc(F)c1)[C@H]1C2C3CC4C5C3CC2C5C41 (some centres not stated),< 50,< 50,< 50,< 50,< 50,117,< 50,< 50,< 50,< 50,–,< 50,< 50,< 50,1.2,< 50
CN(CCc1cccc(F)c1)[C@H]1C2C3CC4C5C3CC2C5C41 (some centres not stated),< 50,< 50,< 50,< 50,< 50,39,< 50,< 50,< 50,< 50,–,< 50,< 50,< 50,101,< 50
Fc1cccc(CCN[C@H]2C3C4CC5C6C4CC3C6C52)c1 (some centres not stated),< 50,–,< 50,< 50,< 50,6,< 50,< 50,< 50,–,> 10000,< 50,–,< 50,1680,–

# From ChEMBL document CHEMBL1641373, “Trishomocubane as a scaffold for the development of selective dopamine transporter (DAT) ligands” (Bioorg Med Chem Lett, 2011)
